From PubChem BioAssay AID1996 come the findings set out here.

Molecules are shown by their SMILES. Converted amounts (≈) assume the structure as drawn.

For this data set the following is noted: buffer; pH 7.4; 200.0 µM.
A word on the solubility (kinetic): it is solubility judged after dilution from a stock solution rather than from solid. For the molecule `COC(=O)Cc1c(O)ccn(Cc2ccc(OC)c(OC)c2)c1=O`, the kinetic solubility was > 50 µg/mL.

For the molecule `O=C(CSc1ncccn1)NCC1CCCO1` (centres undefined), the solubility (kinetic) was > 38 µg/mL. For `CC(=O)N[C@H](Cc1c[nH]c2ccccc12)C(=O)O`, the solubility (kinetic) was > 36.9 µg/mL.

As to `O=C(Nc1cc2c(cc1Br)OCCO2)c1ccc(=O)[nH]c1`, the solubility (kinetic) is > 52.7 µg/mL. The figure for `CC1CN(C(=S)Nc2cccc(Cl)c2Cl)CC(C)O1` (centres undefined) is 18.9 µg/mL (≈ 59.2 µM); for `Cc1c(C(=O)N2CCC2)oc2ccc(Cl)cc12` it is 15.6 µg/mL (≈ 62.5 µM); for `OC1NC(=S)N(c2ccccc2)C1O` (centres undefined) it is > 31.5 µg/mL.

As for `CCC(=O)c1c[nH]c(C(=O)NCc2cccc(C(F)(F)F)c2)c1`, the kinetic solubility is < 0.4 µg/mL.

Molecule `O=C(Nc1ccccc1C(=O)Nc1ccc(Cl)cc1)c1cccnc1` gave a solubility (kinetic) of 0.6 µg/mL (≈ 1.71 µM). The figure for `CNC(=O)c1oc(-c2ccccc2)nc1C` is > 32.4 µg/mL; for `CCCCCCCCNC(CO)(CO)CO` it is 29.5 µg/mL (≈ 126 µM).

In turn, `CCOc1cc2c(C#N)c(N3CCNCC3)nc(N)c2c(N)n1` yielded a kinetic solubility of 1.3 µg/mL (≈ 4.15 µM). For `CCOC(=O)CN1C(=O)S/C(=C\c2ccc3c(c2)OCO3)C1=O`, the kinetic solubility turned out to be 1.8 µg/mL (≈ 5.37 µM). The solubility kinetic values of the last two molecules are within 1.5-fold of each other. With `O=C(c1c[nH]c2ccccc12)C(Cl)c1ccccc1` (centres undefined), the kinetic solubility came to 2.1 µg/mL (≈ 7.79 µM).

Consider `Cc1cccc(NC(=O)CSc2nc3ccccc3c(=O)n2CC2CCCO2)c1` (centres undefined), for which the kinetic solubility worked out at 4.2 µg/mL (≈ 10.3 µM). Consider `CC1(C)C(=O)Nc2ccccc2N1C(=O)COC(=O)c1cc(Cl)cc(Cl)c1`, for which the kinetic solubility came out at 2.8 µg/mL (≈ 6.88 µM).

Turning to `Cc1noc(C(=O)Nc2cccnc2Cl)c1Cl`, the kinetic solubility is > 40.8 µg/mL. In the case of `Cc1ccc([N+](=O)[O-])c(NC2OC(CO)C(O)C2O)c1` (centres undefined) it was > 42.6 µg/mL.

As for `O=C(Nc1cc(Cl)ccc1Cl)c1cc(-c2ccco2)on1`, the solubility (kinetic) turned out to be 0.7 µg/mL (≈ 2.17 µM).

Take `O=C1CNC(=S)N1CCc1ccccc1Cl`: the solubility (kinetic) was > 38.2 µg/mL. Consider `O=C1CC(c2ccccc2)CN1C(=O)c1cccnc1` (centres undefined), for which the kinetic solubility was found to be 34.8 µg/mL (≈ 131 µM).

`O=C(OCC(=O)N1CCOCC1)c1cc(-c2ccccc2)nc2ccccc12`: the solubility (kinetic) was 53.4 µg/mL (≈ 142 µM).

In the case of `Cc1cc2cc(CNC(=O)Cc3ccc([N+](=O)[O-])cc3)ccc2n1C`, the kinetic solubility worked out at 0.3 µg/mL (≈ 0.889 µM). In the case of `Fc1cc(F)c(NC(=S)N2CCOCC2)c(F)c1` it was > 41.4 µg/mL.

With `S=C(NCCc1ccccc1)Nc1ccccc1N1CCOCC1`, the kinetic solubility is > 51.2 µg/mL.

For the molecule `CCN(CC)C(=O)N1CCN(S(=O)(=O)c2ccccc2)CC1`, the kinetic solubility was > 48.8 µg/mL. In the case of `Cc1cccc(NC(=O)COC(=O)c2cc3ccccc3oc2=O)c1` it was < 0.7 µg/mL; in that of `C=CCOc1c(Br)cc(/C=C2/C(=O)ON=C2C)cc1OC`, 44.3 µg/mL (≈ 126 µM); in that of `CN1CCN(c2cc(C(F)(F)F)nc3ccc(F)cc23)CC1`, 43.5 µg/mL (≈ 139 µM). In the case of `O=C(c1ccc(F)cc1)N1CCC(c2ccccc2)C1` (centres undefined) it was 39.8 µg/mL (≈ 148 µM); in that of `S=c1sc2c(Cl)ncnc2n1-c1ccccc1`, 8.3 µg/mL (≈ 29.7 µM). In the case of `S=C(Nc1cccnc1)NC1CC2CCC1C2` (centres undefined) it was > 37.1 µg/mL. In the case of `O=C(NCc1cccnc1)NC1CC(=O)N(c2ccc3c(c2)OCCO3)C1` (centres undefined), the solubility (kinetic) is > 55.3 µg/mL. In the case of `COc1ccc(Cl)cc1NC(=S)NCc1cccnc1` it was > 46.2 µg/mL. The figure for `CCOc1ccc2nc(N(CCN(C)C)C(=O)/C=C/c3cccs3)sc2c1.Cl` is < 0.3 µg/mL; for `CC1CCCN(S(=O)(=O)c2cccc([N+](=O)[O-])c2)C1` (centres undefined) it is 13.3 µg/mL (≈ 46.8 µM); for `Cc1cc(C(=O)NCc2ccc(F)cc2)c2ccccc2n1` it is 15.8 µg/mL (≈ 53.7 µM). The figure for `O=S(=O)(Nc1cc(Cl)cc(Cl)c1)N1CCOCC1` is > 46.7 µg/mL. Consider `CN(c1ccc(OCC(=O)Nc2cc(Cl)ccc2C(=O)O)cc1)S(=O)(=O)c1ccc(F)cc1`, for which the kinetic solubility was > 73.9 µg/mL.

As to `Cc1ccc(S(=O)(=O)NCCCn2ccnc2)cc1C(=O)NC(C)C`, the kinetic solubility was > 54.7 µg/mL. The molecule `CC(OC(=O)c1cccnc1)C(=O)Nc1ccc2c(c1)OCO2` (centres undefined) gave a solubility (kinetic) of 44 µg/mL (≈ 140 µM). Molecule `Nc1ccc(C(=O)Nc2cccc(NC(=O)c3ccc(N)cc3)c2)cc1` came in with a kinetic solubility of 34.8 µg/mL (≈ 100 µM). The figure for `O=C1NC(c2ccc(O)cc2)Nc2ccccc21` (centres undefined) is 29.2 µg/mL (≈ 122 µM). In the case of `O=S(=O)(c1cc(F)ccc1F)N1CCN(c2ncccn2)CC1` it was 46.9 µg/mL (≈ 138 µM); in that of `COc1cc(CCC(=O)OCC(=O)N2CC(=O)Nc3ccccc32)cc(OC)c1OC`, > 64.3 µg/mL. The figure for `CC(NC(=O)CCC(=O)c1ccc(F)cc1)C1CC2CCC1C2` (centres undefined) is 12.5 µg/mL (≈ 39.4 µM); for `COc1ccc(S(=O)(=O)n2c(C)nc3ccccc32)cc1C` it is 36.2 µg/mL (≈ 114 µM). Turning to `CCOc1ccccc1CN1C(=O)NC2(CCCCCC2)C1=O`, the kinetic solubility came to 46.6 µg/mL (≈ 147 µM). Consider `CCCCC(=O)N1CCN(c2nc3ccc(F)cc3s2)CC1`, for which the kinetic solubility was found to be 44.2 µg/mL (≈ 138 µM). `CC1(C)Cn2c(nc(=O)c3c2NCN(CCc2ccccc2)C3)S1`: the solubility (kinetic) is > 51.4 µg/mL. The figure for `Cc1ccc(C)c(NC(=S)Nc2cccnc2)c1` is > 38.6 µg/mL. The figure for `O=C(c1c(F)cccc1F)N1CCC(O)(c2ccc(F)cc2)CC1` is 49 µg/mL (≈ 146 µM); for `Cc1ccc(S(=O)(=O)N(C)C)cc1NC(=O)CN1CCCC1` it is > 48.8 µg/mL; for `CCn1c(C)nc2cc(S(=O)(=O)Nc3ccc(C)cc3)ccc21` it is > 49.4 µg/mL. In the case of `Cc1ccc(OCCNC(=O)c2ccc(C)cc2)cc1` it was 3.8 µg/mL (≈ 14.1 µM); in that of `O=c1cc[nH]c2ccc(OC(F)(F)F)cc12`, > 34.4 µg/mL. As to `O=c1[nH]cc(COCC(F)CCl)c(=O)[nH]1` (centres undefined), the kinetic solubility was > 35.5 µg/mL. In the case of `CC1CN(CC(=O)NCc2ccc(F)cc2)CC(C)O1` (centres undefined), the kinetic solubility was > 42.1 µg/mL. In the case of `COC(=O)c1sccc1NC(=S)Nc1ccc(OC)cc1` it was 35.3 µg/mL (≈ 109 µM); in that of `O=C(CCc1ccc(S(=O)(=O)N2CCOCC2)cc1)OCC(=O)c1ccc(Br)cc1`, 6.7 µg/mL (≈ 13.5 µM). As for `Cn1c(=O)c2c(ncn2CCC(=O)N/N=C/c2ccncc2)n(C)c1=O`, the kinetic solubility is > 53.3 µg/mL. `Cc1ccc(C23CC4CC(CC(CN)(C4)C2)C3)cc1.Cl`: the kinetic solubility is > 43.8 µg/mL. The figure for `O=C(c1ccccc1[N+](=O)[O-])N1CCCC(C(=O)N2CCCCCC2)C1` (centres undefined) is 53 µg/mL (≈ 147 µM); for `O=C(CNS(=O)(=O)c1ccccc1)NCc1ccco1` it is > 44.1 µg/mL. The figure for `O=C(OCC(=O)C12CC3CC(CC(C3)C1)C2)c1ccccn1` is > 44.9 µg/mL. In the case of `COc1cccc(NC(=O)CC(=O)c2ccccc2)c1` it was > 40.4 µg/mL; in that of `CC(O)CNc1ccc([N+](=O)[O-])cc1S(=O)(=O)N1CCOCC1` (centres undefined), > 51.8 µg/mL; in that of `Cc1ccc(NC(=O)N2CCc3ccccc3C2)cc1C`, 0.9 µg/mL (≈ 3.21 µM). With `Cc1ccc(Cl)cc1NC(=O)COC(=O)c1ccccc1O`, the solubility (kinetic) was < 0.7 µg/mL. Turning to `CCOC(=O)CCSc1n[nH]c(=S)s1`, the solubility (kinetic) was > 37.6 µg/mL. The figure for `CC1CN(C(=O)c2ccccc2NS(=O)(=O)c2ccc(Cl)cc2)CC(C)O1` (centres undefined) is > 61.3 µg/mL; for `CCN1CCN(C(=S)NC(CC(=O)c2ccccc2)c2ccccc2)CC1` (centres undefined) it is 49.8 µg/mL (≈ 131 µM); for `Cc1cc(C(=O)NC(C)C2CC2)c(Cl)cc1Cl` (centres undefined) it is 4.7 µg/mL (≈ 17.3 µM).

With `O=C(Nc1nc2ccccc2[nH]1)NC1CCCCC1`, the solubility (kinetic) was 1.6 µg/mL (≈ 6.19 µM).
